In patent publication US11186577B2, “Vasopressin receptor antagonists and products and methods related thereto” (BlackThorn Therapeutics, Inc., priority 2017, dated 2021):

biological target: human Arginine Vasopressin Receptor 1a (AVPR1a) (Homo sapiens (Human), UniProt P37288); assay: Vasopressin V1A receptor antagonist assay (AVP-evoked calcium, FLIPR, CHO-AVPR1a cells); assay type: cell-based; conditions: not given
Method: The purpose of this assay was to determine the inhibitory effect of synthesized compounds on the Vasopressin V1a receptor. The assay as performed in Chinese Hamster Ovary (CHO) cells expressing the human Arginine Vasopressin Receptor 1a (AVPR1a). Arginine Vasopressin (AVP) evokes an increase in intracellular calcium in CHO-AVPR1a cells which is measured in a fluorescence assay on the FLIPR^TETRA using calcium sensitive dyes. Test compounds were assessed for their ability to affect the magnitude of the response to AVP, with antagonists showing a concentration-dependent reduction in the AVP-mediated fluorescence. Compounds were tested in duplicate in a 10-point, 1:3 dilution series starting at a nominal concentration of 3 μM in the assay.
CHO-AVPR1a cells were maintained in routine culture in T175 Flasks at 37° C., 5% CO2. The growth medium consists of Ham's F12 media supplemented with 10% v/v fetal bovine serum, 1× non-essential amino acids, and 0.4 mg/ml Geneticin G418.
On day one, cells were harvested from T175 flasks when they are 80-90% confluent by first washing the cell monolayer with PBS and then dissociated using trypsin 0.05%/EDTA (3 mL for a T175 Flask). The flasks were incubated at room temperature until the cells detached. To the cell suspension, 10 ml of growth media was added and the cell density determined using the Vi-Cell automated cell counter. The cells were spun at 1000 rpm for 3 minutes, then the supernatant was carefully removed and discarded. The cell pellet was re-suspended at 6.0e^5 cells/ml in growth media. 25 μL of cells in growth media was dispensed into each well (15,000 cells per well) of a poly-D-lysine coated black, clear bottomed, 384-well plate. The plates were incubated at 37° C., 5% CO2 overnight.
At the start of each assay day, the potency of AVP was assessed and an EC80 concentration determined for subsequent compound profiling. Assays were performed using a two-step addition protocol on the FLIPR^TETRA; first addition of 5 μl of control or test compound at 10× final in assay buffer with 15 min incubation at 37° C., 5% CO2 followed by 10 μl of AVP at 6× final concentration in assay buffer. […] The assay buffer consisted of HBSS (+Ca/+Mg) supplemented with 20 mM HEPES, and for the preparation of the AVP agonist only, 0.1% w/v bovine serum albumin. The assay was initiated by the removal of growth media from the cells and replacement with 45 μl of Calcium-6 dye (Molecular Devices) prepared at 1× in assay buffer. Cells are loaded with dye for 60-90 min at 37° C., 5% CO2 before initiation of the FLIPR^TETRA protocol. […] At the end of the incubation period, 10 μl of AVP in assay buffer containing 0.1% BSA was added at the previously determined EC80 concentration.

Chain of human Arginine Vasopressin Receptor 1a (AVPR1a) (P37288 whole entry): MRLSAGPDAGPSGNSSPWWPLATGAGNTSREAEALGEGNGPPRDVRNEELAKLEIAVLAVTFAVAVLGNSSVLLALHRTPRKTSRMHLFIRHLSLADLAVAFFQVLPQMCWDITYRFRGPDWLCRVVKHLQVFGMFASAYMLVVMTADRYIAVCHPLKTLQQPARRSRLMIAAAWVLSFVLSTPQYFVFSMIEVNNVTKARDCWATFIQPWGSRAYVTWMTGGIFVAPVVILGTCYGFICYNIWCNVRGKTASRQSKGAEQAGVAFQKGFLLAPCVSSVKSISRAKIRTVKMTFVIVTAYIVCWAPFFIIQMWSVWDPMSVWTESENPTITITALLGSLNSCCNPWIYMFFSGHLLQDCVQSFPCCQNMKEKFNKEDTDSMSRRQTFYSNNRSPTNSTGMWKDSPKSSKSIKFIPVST

SMILES	IC50 [nM]
CN1Cc2cc(Cl)ccc2-n2c(nnc2C2CC3(C2)CN(S(=O)(=O)C2CC2)C3)C1 [compound 26]	100 to 500
CC(C)C(=O)N1CC2(CC(c3nnc4n3-c3ccc(Cl)cc3CN(C)C4)C2)C1 [compound 30]	100 to 500
CN1Cc2cc(Cl)ccc2-n2c(nnc2C2CC3(C2)CN(C(=O)C2(C)CC2)C3)C1 [compound 31]	100 to 500
CN1Cc2cc(Cl)ccc2-n2c(nnc2C2CC3(C2)CN(S(C)(=O)=O)C3)C1 [compound 34, 8-chloro-5-methyl-1-(2-(methylsulfonyl)-2-azaspiro[3.3]heptan-6-yl)-5,6-dihydro-4H-benzo[f][1,2,4]triazolo[4,3-a][1,4]diazepine]	500 to 1000
CN1Cc2cc(Cl)ccc2-n2c(nnc2C2CC3(C2)CN(C(=O)C2CCC2)C3)C1 [compound 35]	100 to 500
CC(C)N1Cc2cc(Cl)ccc2-n2c(nnc2C2CC3(C2)CN(c2cccnc2)C3)C1 [compound 51]	100 to 500
COCCN1Cc2cc(Cl)ccc2-n2c(nnc2C2CC3(C2)CN(c2cccnc2)C3)C1 [compound 55]	100 to 500
Fc1ccc(N2CC3(CC(c4nnc5n4-c4ccc(Cl)cc4CNC5)C3)C2)nc1 [compound 60, 8-chloro-1-(2-(5-fluoropyridin-2-yl)-2-azaspiro[3.3]heptan-6-yl)-5,6-dihydro-4H-benzo[f][1,2,4]triazolo[4,3-a][1,4]diazepine]	100 to 500
CC(=O)N1Cc2cc(Cl)ccc2-n2c(nnc2C2CC3(C2)CN(c2cccnn2)C3)C1 [compound 66]	100 to 500
CN1Cc2cc(Cl)ccc2-n2c(nnc2C2CC3(C2)CN(C(=O)C2CC2(F)F)C3)C1 (stereo not drawn) [compound 124]	100 to 500

same assay, conditions: read-out: V1a IC50

SMILES	IC50 [nM]
CC(C)OC(=O)N1Cc2cc(Cl)ccc2-n2c(C3CC4(C3)CN(c3ccc(F)cn3)C4)nnc2C1C (single isomer, unassigned) [Cpd 163B]	500 to 1000
COC(=O)N1Cc2cc(Cl)ccc2-n2c(C3CC4(C3)CN(c3cnccn3)C4)nnc2C1C (single isomer, unassigned) [Cpd 165B]	500 to 1000
COC(=O)N1Cc2cc(Cl)ccc2-n2c(C3CC4(C3)CN(c3ncccn3)C4)nnc2C1C (single isomer, unassigned) [Cpd 166B]	500 to 1000
CC(C)OC(=O)N1Cc2cc(Cl)ccc2-n2c(C3CC4(C3)CN(c3ncccn3)C4)nnc2C1C (single isomer, unassigned) [Cpd 167B]	> 1000
CCOC(=O)N1Cc2cc(Cl)ccc2-n2c(C3CC4(C3)CN(c3ncccn3)C4)nnc2C1C (single isomer, unassigned) [Cpd 168B]	100 to 500
CCOC(=O)N1Cc2cc(Cl)ccc2-n2c(C3CC4(C3)CN(c3ccc(F)cn3)C4)nnc2C1C (single isomer, unassigned) [Cpd 169B]	100 to 500
COC(=O)N1Cc2cc(Cl)ccc2-n2c(C3CC4(C3)CN(c3ncc(F)cn3)C4)nnc2C1C (single isomer, unassigned) [Cpd 170B]	500 to 1000
CCOC(=O)N1Cc2cc(Cl)ccc2-n2c(C3CC4(C3)CN(c3ncc(F)cn3)C4)nnc2C1C (single isomer, unassigned) [Cpd 172B]	> 1000
CC1c2nnc(C3CC4(C3)CN(c3ccc(F)cn3)C4)n2-c2ccc(Cl)cc2CN1C(=O)C(C)(C)F (single isomer, unassigned) [Cpd 178B]	100 to 500
CC1c2nnc(C3CC4(C3)CN(c3ccc(F)cn3)C4)n2-c2ccc(Cl)cc2CN1C (single isomer, unassigned) [Cpd 179B]	100 to 500
CC1c2nnc(C3CC4(C3)CN(c3ccccn3)C4)n2-c2ccc(Cl)cc2CN1C(=O)C1(F)CC1 (single isomer, unassigned) [Cpd 181B]	100 to 500
COC(=O)N1Cc2cc(Cl)ccc2-n2c(C3CC4(C3)CN(c3ccncn3)C4)nnc2C1C (single isomer, unassigned) [Cpd 184B]	> 1000
CC(C)OC(=O)N1Cc2cc(Cl)ccc2-n2c(C3CC4(C3)CN(c3ccncn3)C4)nnc2C1C (single isomer, unassigned) [Cpd 187A]	< 100
CC(C)OC(=O)N1Cc2cc(Cl)ccc2-n2c(C3CC4(C3)CN(c3ccncn3)C4)nnc2C1C (single isomer, unassigned) [Cpd 187B]	> 1000
COC(=O)N1Cc2cc(Cl)ccc2-n2c(C3CC4(C3)CN(c3ncncc3F)C4)nnc2C1C (single isomer, unassigned) [Cpd 188A]	< 100
COC(=O)N1Cc2cc(Cl)ccc2-n2c(C3CC4(C3)CN(c3ncncc3F)C4)nnc2C1C (single isomer, unassigned) [Cpd 188B]	> 1000
CC1c2nnc(C3CC4(C3)CN(c3ccc(F)cn3)C4)n2-c2ccc(Cl)cc2CN1C(=O)OC1CC1 (single isomer, unassigned) [Cpd 191B]	> 1000
CC1c2nnc(C3CC4(C3)CN(c3ncc(F)cn3)C4)n2-c2ccc(Cl)cc2CN1C(=O)OC1CC1 (single isomer, unassigned) [Cpd 192B]	> 1000

SMILES	IC50 [nM]
CC1c2nnc(C3CC4(C3)CN(c3ncc(F)cn3)C4)n2-c2ccc(Cl)cc2CN1C(=O)OC(CF)CF (single isomer, unassigned) [Cpd 194B]	> 1000
CC(C)OC(=O)N1Cc2cc(Cl)ccc2-n2c(C3CC4(C3)CN(c3ncc(F)cn3)C4)nnc2C1C (single isomer, unassigned) [Cpd 201B]	500 to 1000
CN1Cc2cc(Cl)ccc2-n2c(nnc2C2CC3(C2)CN(C(=O)c2ccccn2)C3)C1 [compound 24]	> 1000
CN1Cc2cc(Cl)ccc2-n2c(nnc2C2CC3(C2)CN(C(=O)N2CCOCC2)C3)C1 [compound 25]	> 1000
CN1Cc2cc(Cl)ccc2-n2c(nnc2C2CC3(C2)CN(C(=O)C2CCOCC2)C3)C1 [compound 27]	> 1000
CN1Cc2cc(Cl)ccc2-n2c(nnc2C2CC3(C2)CN(C(=O)OC2CCOCC2)C3)C1 [compound 29]	> 1000
CN1Cc2cc(Cl)ccc2-n2c(nnc2C2CC3(C2)CN(C(=O)CC2CC2)C3)C1 [compound 32]	> 1000
CN1Cc2cc(Cl)ccc2-n2c(nnc2C2CC3(C2)CN(C(=O)C2CCO2)C3)C1 (stereo not drawn) [compound 33]	> 1000
CN1Cc2cc(Cl)ccc2-n2c(nnc2C2CC3(C2)CN(c2ncccn2)C3)C1 [compound 38]	< 100
Clc1ccc2c(c1)CN(C1CCC1)Cc1nnc(C3CC4(C3)CN(c3cnccn3)C4)n1-2 [compound 40]	< 100
COCCN1Cc2cc(Cl)ccc2-n2c(nnc2C2CC3(C2)CN(c2cnccn2)C3)C1 [compound 43]	< 100
COCCN1Cc2cc(Cl)ccc2-n2c(nnc2C2CC3(C2)CN(c2ccc(F)cn2)C3)C1 [compound 44]	< 100
COCCN1Cc2cc(Cl)ccc2-n2c(nnc2C2CC3(C2)CN(c2ncccc2F)C3)C1 [compound 53]	< 100
CC(C)(C)OC(=O)N1Cc2cc(Cl)ccc2-n2c(nnc2C2CC3(C2)CN(c2ccccn2)C3)C1 [compound 62]	< 100
O=C(C(F)F)N1Cc2cc(Cl)ccc2-n2c(nnc2C2CC3(C2)CN(c2cnccn2)C3)C1 [compound 82]	< 100
CN1Cc2cc(Cl)ccc2-c2c(C3CC4(C3)CN(c3ccc(F)cn3)C4)noc2C1 [compound 97, 8-chloro-1-(2-(5-fluoropyridin-2-yl)-2-azaspiro[3.3]heptan-6-yl)-5-methyl-5,6-dihydro-4H-benzo[c]isoxazolo[4,5-e]azepine]	< 100
COCC(=O)N1CC2(CC(c3nnc4n3-c3ccc(Cl)cc3CN(C)C4)C2)C1 [compound 126]	> 1000
